The results in this text go back to article PMC10610134, “Verubulin (Azixa) Analogues with Increased Saturation: Synthesis, SAR and Encapsulation in Biocompatible Nanocontainers Based on Ca^2+ or Mg^2+ Cross-Linked Alginate” (Pharmaceuticals, 2023).

The term IC50 denotes the concentration that gives 50% inhibition. A word on the melting point: it is the temperature, or range, at which the solid turns liquid.

A value given as a limit tells only on which side of the number the result lay.

One series relates to MCF7′, A549, VA13, HEK293T cell lines. The series can be described thus: MTT cytotoxicity, SAR statements over the cell line panel. Particulars: 2a vs. 2c, 2g vs. 2i. Format: cell-based, human. An excerpt:
(§1) The obtained series of verubulin analogues 2a–r (which also included three by-products isolated in the reactions according to Scheme 2) were initially evaluated for cytotoxicity against commonly used human breast cancer cell line MCF7′ (fast-growth subclone), human lung epithelial carcinoma cell line A549 and etiologically non-cancer immortalized lung fibroblast cell line VA13 (WI38 subline 2RA). Cytotoxicity against immortalized human embryonic kidney cell line HEK293T, characterized by a high growth rate, was also studied regarding cytotoxicity against non-cancerous fast-growth cells. A standard MTT assay was performed; verubulin (1) served as a positive reference. The data obtained are presented in Table 1 (for dose–response curves, see Supplementary Materials).
(§2) The cytotoxicity of the substances was tested using the 3-(4,5-dimethylthiazol-2-yl)2,5-diphenyl tetrazolium bromide (MTT) assay with some modifications. A total of 2500 cells per well for the MCF7′, HEK293T, A549 cell lines or 4000 cells per well for the VA-13 cell line were plated out in 135 μL of DMEM-F12 media (Gibco, Thermo Fisher Scientific, Waltham, MA, USA) in a 96-well plate and incubated in the 5% CO2 incubator for the first 20 h without treatment. Then, 15.8 μL of media–DMSO solutions of tested substances (final DMSO concentrations in the media were 0.5% or less) was added to the cells (triplicate each) and cells were treated for 64 h with 0.023 mg/L–50 mg/L (eight dilutions) of compounds 2f,n,o,r; 1.14 μg/L–2.5 mg/L (eight dilutions) of compounds 2a,b,d,g,h,k,l,p,q; 57.2 ng/L–125 μg/L (eight dilutions) of compounds 2e,i,j; 22.9 ng/L–50 μg/L (eight dilutions) of compounds 1,2c,m. Doxorubicin was used as a control substance. Then, the MTT reagent (Paneco LLC, Moscow, Russia) was added to cells up to a final concentration of 0.5 g/L (10 × stock solution in PBS was used) and incubated for 2 h at 37 °C in the incubator, under an atmosphere of 5% CO2. Then, the MTT solution was discarded, and 140 μL of DMSO (PharmaMed LLC, Moscow, Russia) was added. The plates were swayed on a shaker (120 rpm) to dissolve the formazan. The absorbance was measured using a microplate reader (VICTOR X5 Light Plate Reader, PerkinElmer, Waltham, MA, USA) at a wavelength of 555 nm (in order to measure formazan concentration). The results were used to construct dose–response graphs and to estimate IC50 values (IC50 is the concentration resulting in half of the maximal cytotoxic effect) with GraphPad Prism V, GraphPadSoftware, Inc., San Diego, CA, USA.
With `CN(c1ccccc1)c1nc(N)nc2c1CCCC2` [Compound 2g, N^4-Methyl-N^4-phenyl-5,6,7,8-tetrahydroquinazolinyl-2,4-diamine], the “reduction of cytotoxicity on removal of para-methoxy substituent” value was 2–3 orders of magnitude.

The same series, now with this note: MTT, 64 h.
In the case of `COc1ccc2c(c1)CCCN2c1nc(O)nc2c1CCCC2` [Compound 2o, 2-Hydroxy-4-(6-methoxy-3,4-dihydroquinolin-1(2H)-yl)-5,6,7,8-tetrahydroquinazoline], the “cytotoxicity, in words” value is “complete loss of cytotoxicity”.

Regarding `Cc1nc2c(c(N3CCCc4ccc([N+](=O)[O-])cc43)n1)CCCC2` [Compound 2f, 2-Methyl-4-(7-nitro-3,4-dihydroquinolin-1(2H)-yl)-5,6,7,8-tetrahydroquinazoline], the “cytotoxicity, in words” value is “inactive”.

For the compound `COc1ccc2c(c1)CCCN2c1nc2c(c(OC(C)C)n1)CCCC2` [Compound 2r, 4-Isopropoxy-2-(6-methoxy-3,4-dihydroquinolin-1(2H)-yl)-5,6,7,8-tetrahydroquinazoline], the “cytotoxicity, in words” value is listed as “moderately cytotoxic”.

In the case of `COc1ccc2c(c1)CCCN2c1nc(OC(C)C)nc2c1CCCC2` [Compound 2q, 2-Isopropoxy-4-(6-methoxy-3,4-dihydroquinolin-1(2H)-yl)-5,6,7,8-tetrahydroquinazoline], the “cytotoxicity, in words” value is “largely restored”.

For `COc1ccc(N(C)c2nc3c(c(N(C)c4ccc(OC)cc4)n2)CCCC3)cc1` [Compound 2n, N,N′-bis(4-methoxyphenyl)-N,N′-dimethyl-5,6,7,8-tetrahydroquinazolin-2,4-diamine], the “cytotoxicity, in words” value is “moderately cytotoxic”.

In a further series the test system is human breast cancer cell line MCF7′. The series can be described thus: MTT cytotoxicity assay, MCF7′. Particulars: MCF7, 64 h treatment, MTT, read-out: IC50, nM MCF7′. It counts as cell-based.
Description: as §1
(§3) Human breast cancer cell line MCF7′ and human lung adenocarcinoma cell line A549 were kindly provided by Dr. S. Dmitriev (Lomonosov Moscow State University), immortalized human fibroblast cell line VA13 (WI38 subline 2RA) was kindly provided by Dr. M. Rubtsova (Lomonosov Moscow State University), human embryonic kidney HEK293T cell line was kindly provided by Dr. E. Knyazhanskaya (Lomonosov Moscow State University). MCF7′, VA13, A549 and HEK293T cell lines were maintained in DMEM/F-12 (Thermo Fisher Scientific, Waltham, MA, USA) culture medium containing 10% fetal bovine serum (Thermo Fisher Scientific, Waltham, MA, USA) and 50 μg/mL penicillin and 0.05 mg/mL streptomycin at 37 °C (Thermo Fisher Scientific, Waltham, MA, USA) in 5% CO2. Cells were maintained at 37 °C in a humidified MCO-18AC incubator (Sanyo, Tokyo, Japan) supplied with 5% CO2. Cell cultures were tested for the absence of mycoplasma and validated by STR.
as §2
With `COc1ccc2c(c1)CCCN2c1nc(O)nc2c1CCCC2` [Compound 2o, 2-Hydroxy-4-(6-methoxy-3,4-dihydroquinolin-1(2H)-yl)-5,6,7,8-tetrahydroquinazoline], the IC50 was over 50000 nM.

Turning to `Cc1nc2c(c(N3CCCc4ccc([N+](=O)[O-])cc43)n1)CCCC2` [Compound 2f, 2-Methyl-4-(7-nitro-3,4-dihydroquinolin-1(2H)-yl)-5,6,7,8-tetrahydroquinazoline], the IC50 is over 50000 nM.

As for `COc1ccc2c(c1)CCCN2c1nc2c(c(OC(C)C)n1)CCCC2` [Compound 2r, 4-Isopropoxy-2-(6-methoxy-3,4-dihydroquinolin-1(2H)-yl)-5,6,7,8-tetrahydroquinazoline], the IC50 amounted to 24200 nM.

For the compound `CN(c1ccccc1)c1nc(N)nc2c1CCCC2` [Compound 2g, N^4-Methyl-N^4-phenyl-5,6,7,8-tetrahydroquinazolinyl-2,4-diamine], the IC50 was found to be 28600 nM.

With `COc1ccc2c(c1)CCCN2c1nc(OC(C)C)nc2c1CCCC2` [Compound 2q, 2-Isopropoxy-4-(6-methoxy-3,4-dihydroquinolin-1(2H)-yl)-5,6,7,8-tetrahydroquinazoline], the IC50 stood at 310 ± 22 nM.

For `COc1ccc(N(C)c2nc3c(c(N(C)c4ccc(OC)cc4)n2)CCCC3)cc1` [Compound 2n, N,N′-bis(4-methoxyphenyl)-N,N′-dimethyl-5,6,7,8-tetrahydroquinazolin-2,4-diamine], the IC50 is 2500 ± 140 nM.

Test system in the next series: not given
Test: not given
Details: not given
The compound `Cc1nc2c(c(N3CCCc4ccc([N+](=O)[O-])cc43)n1)CCCC2` [Compound 2f, 2-Methyl-4-(7-nitro-3,4-dihydroquinolin-1(2H)-yl)-5,6,7,8-tetrahydroquinazoline] yielded a melting point of 184 to 185 °C.

With `CN(c1ccccc1)c1nc(N)nc2c1CCCC2` [Compound 2g, N^4-Methyl-N^4-phenyl-5,6,7,8-tetrahydroquinazolinyl-2,4-diamine], the melting point was in the range of 128 to 129 °C.

For the next series, the system named is human lung epithelial carcinoma cell line A549. The series can be described thus: MTT cytotoxicity assay, A549. It counts as cell-based. Conditions: A549, 64 h treatment, MTT, read-out: IC50, nM A549.
Description: as §1, §3, §2
`COc1ccc2c(c1)CCCN2c1nc(O)nc2c1CCCC2` [Compound 2o, 2-Hydroxy-4-(6-methoxy-3,4-dihydroquinolin-1(2H)-yl)-5,6,7,8-tetrahydroquinazoline]: the half-maximal inhibitory concentration (IC50) was over 50000 nM.

Take `Cc1nc2c(c(N3CCCc4ccc([N+](=O)[O-])cc43)n1)CCCC2` [Compound 2f, 2-Methyl-4-(7-nitro-3,4-dihydroquinolin-1(2H)-yl)-5,6,7,8-tetrahydroquinazoline]: the IC50 is over 50000 nM.

Regarding `COc1ccc2c(c1)CCCN2c1nc2c(c(OC(C)C)n1)CCCC2` [Compound 2r, 4-Isopropoxy-2-(6-methoxy-3,4-dihydroquinolin-1(2H)-yl)-5,6,7,8-tetrahydroquinazoline], the concentration for half-maximal inhibition (IC50) stood at 23800 nM.

On to `CN(c1ccccc1)c1nc(N)nc2c1CCCC2` [Compound 2g, N^4-Methyl-N^4-phenyl-5,6,7,8-tetrahydroquinazolinyl-2,4-diamine], for which the half-inhibitory concentration (IC50) was 36400 nM.

`COc1ccc2c(c1)CCCN2c1nc(OC(C)C)nc2c1CCCC2` [Compound 2q, 2-Isopropoxy-4-(6-methoxy-3,4-dihydroquinolin-1(2H)-yl)-5,6,7,8-tetrahydroquinazoline]: the IC50 is 360 ± 34 nM.

As to `COc1ccc(N(C)c2nc3c(c(N(C)c4ccc(OC)cc4)n2)CCCC3)cc1` [Compound 2n, N,N′-bis(4-methoxyphenyl)-N,N′-dimethyl-5,6,7,8-tetrahydroquinazolin-2,4-diamine], the IC50 came to 3270 ± 290 nM.

Another series relates to immortalized lung fibroblast cell line VA13 (WI38 subline 2RA). In words: MTT cytotoxicity assay, VA13. Format: cell-based. Particulars: Homo sapiens, VA-13; 64 h treatment, MTT; read-out: IC50, nM VA13.
Description: as §1, §3, §2
(In general: Tetrazolium assays rely on reduction of a dye to a coloured formazan, in cell work by metabolically active cells.)
Regarding `COc1ccc2c(c1)CCCN2c1nc(O)nc2c1CCCC2` [Compound 2o, 2-Hydroxy-4-(6-methoxy-3,4-dihydroquinolin-1(2H)-yl)-5,6,7,8-tetrahydroquinazoline], the half-maximal inhibitory concentration (IC50) was over 50000 nM.

With `Cc1nc2c(c(N3CCCc4ccc([N+](=O)[O-])cc43)n1)CCCC2` [Compound 2f, 2-Methyl-4-(7-nitro-3,4-dihydroquinolin-1(2H)-yl)-5,6,7,8-tetrahydroquinazoline], the concentration for half-maximal inhibition (IC50) was over 50000 nM.

For the compound `COc1ccc2c(c1)CCCN2c1nc2c(c(OC(C)C)n1)CCCC2` [Compound 2r, 4-Isopropoxy-2-(6-methoxy-3,4-dihydroquinolin-1(2H)-yl)-5,6,7,8-tetrahydroquinazoline], the concentration for half-maximal inhibition (IC50) was found to be 118000 nM.

`CN(c1ccccc1)c1nc(N)nc2c1CCCC2` [Compound 2g, N^4-Methyl-N^4-phenyl-5,6,7,8-tetrahydroquinazolinyl-2,4-diamine]: the IC50 stood at 26900 nM.

Take `COc1ccc2c(c1)CCCN2c1nc(OC(C)C)nc2c1CCCC2` [Compound 2q, 2-Isopropoxy-4-(6-methoxy-3,4-dihydroquinolin-1(2H)-yl)-5,6,7,8-tetrahydroquinazoline]: the IC50 was determined as 160 ± 20 nM.

On to `COc1ccc(N(C)c2nc3c(c(N(C)c4ccc(OC)cc4)n2)CCCC3)cc1` [Compound 2n, N,N′-bis(4-methoxyphenyl)-N,N′-dimethyl-5,6,7,8-tetrahydroquinazolin-2,4-diamine], for which the IC50 was 2290 ± 160 nM.

The test system of another series is immortalized human embryonic kidney cell line HEK293T. In words: MTT cytotoxicity assay, HEK293T. Conditions: HEK-293T, 64 h treatment, MTT, read-out: IC50, nM HEK293T. Format: cell-based.
Description: as §1, §3, §2
With `COc1ccc2c(c1)CCCN2c1nc(O)nc2c1CCCC2` [Compound 2o, 2-Hydroxy-4-(6-methoxy-3,4-dihydroquinolin-1(2H)-yl)-5,6,7,8-tetrahydroquinazoline], the IC50 is over 50000 nM.

Consider `Cc1nc2c(c(N3CCCc4ccc([N+](=O)[O-])cc43)n1)CCCC2` [Compound 2f, 2-Methyl-4-(7-nitro-3,4-dihydroquinolin-1(2H)-yl)-5,6,7,8-tetrahydroquinazoline], for which the IC50 was over 50000 nM.

For `COc1ccc2c(c1)CCCN2c1nc2c(c(OC(C)C)n1)CCCC2` [Compound 2r, 4-Isopropoxy-2-(6-methoxy-3,4-dihydroquinolin-1(2H)-yl)-5,6,7,8-tetrahydroquinazoline], the IC50 was determined as 53500 nM.

With `CN(c1ccccc1)c1nc(N)nc2c1CCCC2` [Compound 2g, N^4-Methyl-N^4-phenyl-5,6,7,8-tetrahydroquinazolinyl-2,4-diamine], the IC50 was 26300 nM.

Regarding `COc1ccc2c(c1)CCCN2c1nc(OC(C)C)nc2c1CCCC2` [Compound 2q, 2-Isopropoxy-4-(6-methoxy-3,4-dihydroquinolin-1(2H)-yl)-5,6,7,8-tetrahydroquinazoline], the IC50 amounted to 250 ± 11 nM.

Turning to `COc1ccc(N(C)c2nc3c(c(N(C)c4ccc(OC)cc4)n2)CCCC3)cc1` [Compound 2n, N,N′-bis(4-methoxyphenyl)-N,N′-dimethyl-5,6,7,8-tetrahydroquinazolin-2,4-diamine], the IC50 is 1720 ± 68 nM.
